pIC50: −log10 of the molar value. “Also recorded” adds a separate entry of the source.
Tests used:
[1] = system: DENV (serotypes 1-4); assay: CPE assay, Dengue serotypes 1-4; assay type: cell-based, Dengue virus
[2] = system: HIV-1 CMU08 (subtype E clinical isolate); assay: Anti-HIV efficacy in human PBMCs, isolate CMU08; assay type: cell-based
Experimental: HIV human peripheral blood mononuclear cell (PBMC) assays were performed as described previously (Lanier et al., 2010, Antimicrob. Agents Chemother. 54:2901-09; Ptak et al., 2008, Antimicrob. Agents Chemother. 52:1302-17). Briefly, fresh PBMCs, seronegative for HIV and hepatitis B virus (HBV), were isolated from blood samples of the screened donors (Biological Specialty Corporation, Colmar, Pa.) by using lymphocyte separation medium (LSM; density, 1.078±0.002 g/ml; Cellgro; Mediatech, Inc.) by following the manufacturer's instructions. Cells were stimulated by incubation in 4 μg/mL phytohemagglutinin (PHA; Sigma) for 48 to 72 h. Mitogenic stimulation was maintained by the addition of 20 U/mL recombinant human interleukin-2 (rhIL-2; R&D Systems, Inc.) to the culture medium. PHA-stimulated PBMCs from at least two donors were pooled, diluted in fresh medium, and added to 96-well plates at 5×10^4 cells/well. Cells were infected (final multiplicity of infection [MOI] of ≅0.1) in the presence of 9 different concentrations of test compounds (triplicate wells/concentration) and incubated for 7 days. […] Following removal of supernatant samples, compound cytotoxicity was measured by the addition of 3-(4,5-dimethylthiazol-2-yl)-5-(3-carboxymethoxyphenyl)-2-(4-sulfophenyl)-2H-tetrazolium (MTS; CellTiter 96 reagent; Promega) by following the manufacturer's instructions. […]

## O=C(O)c1ccc(-c2nc(-c3ccccc3)c(-c3ccccc3)[nH]2)cc1 [CMPD-E, 4-(4,5-diphenyl-1H-imidazol-2-yl)benzoic acid]
[1]
  anti-DENV activity: no inhibitory effects; also recorded: retains none of the anti-DENV activity
[1]; Dengue virus
  pIC50: < 4.00
[2]; Human immunodeficiency virus 1, PBMC
  pIC50: 4.00
[2]; PBMC
  Antiviral index (TC50/IC50): >1

Source: patent publication US20130165489A1, “Small Molecule Modulators of HIV-1 Capsid Stability and Methods Thereof” (The Trustees of the University of Pennsylvania, priority 2010, published 2013)
